Assay results reported in US9724396B2, “Use of antagonists of growth hormone or growth hormone receptor to prevent or treat stress-sensitive psychiatric illness” (Massachusetts Institute of Technology, priority 2013, dated 2017).

Legend:
[1] = test system: endogenous GH; assay: Auditory fear conditioning after intra-BLA AAV (GHA or GFP) and 10 days of systemic MK-0677 or saline; assay type: in vivo, rat; details: 10 days MK-0677 or saline, tested 48 h after conditioning
Experimental: (§1) Animals were killed 24 h after the last stress or handling session and the basolateral complex of the amygdala (BLA) was dissected. Growth hormone (GH) levels in the BLA were measured using enzyme-linked immunosorbent assay (ELISA). b) The herpes simplex virus (HSV)-based viral vectors expressing either green fluorescent protein (GFP; CON) or recombinant rat GH (rGH) was infused in the BLA and expression was assessed after behavioral testing was complete. Representative GFP expression from two rats is shown. c) Auditory Pavlovian fear conditioning was performed 3 days after HSV virus infusions. d) Long-term fear memory was assessed by placing the animals in a novel context and measuring conditional freezing following tone presentation 48 h after the conditioning session. e) Short-term BLA cell cultures were used to measure GH release following treatment with a ghrelin receptor agonist (MK) or vehicle (VEH). f) Adeno-associated virus (AAV) constructs were generated to examine the contribution of GH-mediated signaling in the BLA to ghrelin-induced potentiation of fear. g) Following infusion of the AAVs into the BLA and recovery, rats received 10 days of systemic injection of either a ghrelin receptor agonist (MK) or vehicle (VEH). […]

[2] = target: T1, ghrelin receptor (Rattus norvegicus, UniProt O08725); assay: GH release from short-term BLA cell cultures after ghrelin receptor stimulation; assay type: cell-based; details: versus vehicle
T1 construct: short-term cultures were generated of BLA cells and measured GH protein in the media following treatment with either MK-0677 or vehicle; endogenous in cells; host or cells: short-term cultures of basolateral amygdala (BLA) cells
Experimental: as §1

[3] = test system: GH; details: Varga et al, Proc. Natl. Acad. Sci. USA 1999; cited from earlier work

T1 sequence (O08725 whole entry): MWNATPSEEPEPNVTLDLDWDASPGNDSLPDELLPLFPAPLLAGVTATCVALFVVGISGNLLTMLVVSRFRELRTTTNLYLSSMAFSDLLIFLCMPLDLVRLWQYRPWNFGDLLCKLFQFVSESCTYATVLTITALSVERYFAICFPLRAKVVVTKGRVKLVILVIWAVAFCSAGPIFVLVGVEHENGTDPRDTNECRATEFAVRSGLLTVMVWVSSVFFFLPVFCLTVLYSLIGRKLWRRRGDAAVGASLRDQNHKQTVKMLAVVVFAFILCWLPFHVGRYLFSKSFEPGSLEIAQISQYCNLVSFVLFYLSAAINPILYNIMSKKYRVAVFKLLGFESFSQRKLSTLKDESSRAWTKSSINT

Compound	long-term auditory fear memory [1]	release of GH into the media [2]	antagonistic activity [3]
CC(C)(N)C(=O)N[C@H](COCc1ccccc1)C(=O)N1CCC2(CC1)CN(S(C)(=O)=O)c1ccccc12 [MK-0677]	fear-enhancing effects	significantly elevated release of GH	
[PhAc-Tyr1,D-Arg2,Phe(4-Cl)6, Har9,Tyr(Me)10,Abu15,Nle27,D-Arg28,Har29]hGH-RH(1-29)NH2 [JV-1-38]			high and or protracted antagonistic activity
[PhAc-Tyr1,DArg2, Phe(4-Cl)6,Arg9,Abu15,Nle27,D-Arg29]hGH-RH(1-29)NH2 [JV-1-10]			high and or protracted antagonistic activity
[PhAc-Tyr1,DArg2, Phe(4-Cl)6,Arg9,Abu15,Nle27,D-Arg28,Har29]hGH-RH(1-29)NH2 [JV-1-36]			high and or protracted antagonistic activity
[PhAc-Tyr1,D-Arg2,Phe(4-Cl)6,Abu15,Nle27, D-Arg28,Har29]hGH-RH(1-29)NH2 [MZ-6-55]			high and or protracted antagonistic activity
